Data set [1] has as its system Saccharomyces cerevisiae. The data set can be described thus: Minimum inhibitory concentration, in vitro antifungal potency (Saccharomyces cerevisiae). It is filed as cell-based. The settings on record: for MIC: read-out: Min. Inhibitory Conc. From the text: (§1) As indicated, numerous tests have shown that the antimicrobial activity of the present derivatives, both in the immediate ester form of esterification and in the final water-soluble salt form, is substantially the same as that of the base antibiotics. […] In the table the numerical values represent minimum inhibitory concentration and thus the lower the value, the greater the activity in inhibiting growth of the organism.

The nature of data set [2]: Water solubility of acid salts of the esters by the dry weight method. The class given is physicochemical. The settings on record: acid addition salts (hydrochlorides); for solubility: water.
A short description of data set [3]: Qualitative solubility of esters and salts in water and organic solvents. The class given is physicochemical.
Data set [4] in a line: True water solubility of base polyene antibiotics by DMSO dilution and ultra-violet spectrum. It is filed as physicochemical. The settings on record: for solubility: water.
A short description of data set [5]: True solution in water judged by ultra-violet spectrum (FIG. 5). It is filed as physicochemical. The settings on record: 7 micrograms per ml. in water. The source says: The true solubility of the present derivatives is further illustrated by FIG. 5, where curve A is the ultraviolet spectrum for amphotericin B methyl ester hydrochloride in water, 7 micrograms per ml., and curve B is a like spectrum for the same concentration of the base amphotericin B in water.

Data set [6] relates to Mucor rouxii. The data set can be described thus: Minimum inhibitory concentration (Mucor rouxii). It is filed as cell-based. The settings on record: Amylomyces rouxii.
Excerpt: as §1
(§2) In the case of amphotericin B this set of tests was extended to other microorganisms: the minimum inhibitory concentrations in micrograms per ml. for amphotericin B and its methyl ester hydrochloride respectively were 0.5 and 0.5 against Candida albicans, 0.5 and 0.5 against Mucor rouxii, and 0.20 and 0.25 against Aspergillus niger.

For data set [7], the system named is Candida albicans. The data set can be described thus: Minimum inhibitory concentration (Candida albicans). The class given is cell-based.
Excerpt: as §1, §2

Data set [8] relates to Aspergillus niger. The data set can be described thus: Minimum inhibitory concentration (Aspergillus niger). The class given is cell-based.
Excerpt: as §1, §2

Data set [9] deals with Saccharomyces cerevisiae, Candida albicans and Aspergillus niger. The data set can be described thus: Standard in vitro tests of antimicrobial activity of derivative and base against representative organisms. The class given is cell-based. The settings on record: result in words.
Excerpt: as §1

Setting [10] is: base antibiotics, calculated from UV after ten fold dilution of saturated water solution with dimethyl sulfoxide.

The solubility is the dissolved amount per volume that the medium holds.

Values after ≈ are worked out from the molar mass of the structure shown. Structures can show the parent of a compound that is named as a salt. Where two headings read alike, the source gives them in different places.

As to `COC(=O)C1C(O)CC2(O)CC(O)CC3OC3/C=C/C(=O)OC(C)C/C=C/C=C/C=C/C=C/C(OC3OC(C)C(O)C(N)C3O)CC1O2` (centres unmarked) [Pimaricin methyl ester], the MIC in [1] (in vitro) was found to be 4 µg/mL (≈ 5.88 µM).

Regarding Candicidin methyl ester hydrochloride, the Solubility in water in data set [2] was above 20.0 mg/mL. The “Min. Inhibitory Conc.” value in data set [1] (in vitro) is recorded as 0.025 micrograms/ml.

`COC(=O)[C@H]1[C@@H]2C[C@@H](O[C@@H]3O[C@H](C)[C@@H](O)[C@H](N)[C@@H]3O)/C=C/C=C/C=C/C=C/C=C/C=C/C=C/[C@H](C)[C@@H](O)[C@@H](C)[C@H](C)OC(=O)C[C@H](O)C[C@H](O)CC[C@@H](O)[C@H](O)C[C@H](O)C[C@](O)(C[C@@H]1O)O2` [Amphotericin B methyl ester, amphotericin B methyl ester]: the “solubility in ethyl acetate” value in [3] (ethyl acetate) is reported as “slightly soluble”. The “solubility in organic solvents” value in data set [3] (methyl alcohol, ethyl alcohol, tetrahydrofurane, dimethyl formamide and dimethyl sulfoxide) was “soluble”. The “solubility in petroleum ether and ethyl ether” value in data set [3] (petroleum ether and ethyl ether) is reported as “insoluble”. Besides, the “solubility in water (in words)” value in [3] (water) is “slightly soluble”. Consider Nystatin methyl ester hydrochloride, for which the Solubility in water in data set [2] was above 80.0 mg/mL.

As for Hamycin, in data set [4] (setting [10]), the Solubility in water is 0.032 mg/mL. For the compound Nystatin methyl ester, the “Min. Inhibitory Conc.” value in data set [1] (in vitro) is recorded as 4.00 micrograms/ml. Turning to Candicidin [reference compound], the Solubility in water in data set [4] (setting [10]) is 0.032 mg/mL. In addition, the “Min. Inhibitory Conc.” value in data set [1] (in vitro) stood at 0.020 micrograms/ml. For Trichomycin [reference compound], the Solubility in water in data set [4] (setting [10]) is 0.046 mg/mL. Besides, in data set [1] (in vitro), the “Min. Inhibitory Conc.” value is recorded as 0.030 micrograms/ml. As for `COC(=O)[C@H]1[C@@H]2C[C@@H](O[C@@H]3O[C@H](C)[C@@H](O)[C@H](N)[C@@H]3O)/C=C/C=C/C=C/C=C/C=C/C=C/C=C/[C@H](C)[C@@H](O)[C@@H](C)[C@H](C)OC(=O)C[C@H](O)C[C@H](O)CC[C@@H](O)[C@H](O)C[C@H](O)C[C@](O)(C[C@@H]1O)O2` [amphotericin B methyl ester hydrochloride], the “state in water by ultraviolet spectrum” value in [5] was “true solution in water”. The Solubility in water in [2] (hydrochloride) is above 75 mg/mL. Further, the solubility in data set [2] was above 75 mg/mL. For the same compound, the MIC came out at 0.5 µg/mL in [6], 0.5 µg/mL in data set [7], 0.25 µg/mL in data set [8] and 0.25 µg/mL in [1]. Further, the “antimicrobial activity compared with the base antibiotic” value in data set [9] is listed as “very substantial antimicrobial activity, essentially the same, i.e., quantitatively, as the base antibiotic”. For the compound `C[C@@H]1[C@H](O)[C@@H](C)/C=C/C=C/C=C/C=C/C=C/C=C/C=C/[C@H](O[C@@H]2O[C@H](C)[C@@H](O)[C@H](N)[C@@H]2O)C[C@@H]2O[C@](O)(C[C@@H](O)C[C@@H](O)[C@H](O)CC[C@@H](O)C[C@@H](O)CC(=O)O[C@H]1C)C[C@H](O)[C@H]2C(=O)O` [Amphotericin B, amphotericin B, reference compound], the solubility in [4] (base antibiotics, calculated from UV after ten fold dilution of saturated water solution with dimethyl sulfoxide, read-out: Solubility in water) was 0.0017 mg/mL (≈ 1.84 µM). Besides, the “state in water by ultraviolet spectrum” value in [5] is “did not dissolve and was therefore a mere dispersion”. The MIC in data set [6] was 0.5 µg/mL (≈ 0.541 µM); in [8] it was 0.2 µg/mL (≈ 0.216 µM); in data set [1] it was 0.25 µg/mL (≈ 0.271 µM).

For Mediocidin methyl ester, the “Min. Inhibitory Conc.” value in data set [1] (in vitro) came to 0.030 micrograms/ml.

For `C[C@@H]1[C@H](O)[C@@H](C)/C=C/C=C/CC/C=C/C=C/C=C/C=C/C(O[C@H]2O[C@H](C)[C@@H](O)[C@H](N)[C@@H]2O)CC2O[C@](O)(CC(O)C(O)CCC(O)CC(O)CC(O)CC(=O)O[C@H]1C)CC(O)C2C(=O)O` (some centres unmarked) [Nystatin, reference compound], the Solubility in water in data set [4] (setting [10]) is 0.039 mg/mL (≈ 42.1 µM). In data set [1] (in vitro), the “Min. Inhibitory Conc.” value was 3.00 micrograms/ml. The compound `C[C@@H]1C/C=C/C=C/C=C/C=C/[C@H](O[C@@H]2O[C@H](C)[C@@H](O)[C@H](N)[C@@H]2O)C[C@@H]2O[C@](O)(C[C@@H](O)C[C@H]3O[C@@H]3/C=C/C(=O)O1)C[C@H](O)[C@H]2C(=O)O` [Pimaricin, reference compound] showed a solubility in data set [4] of 0.052 mg/mL (≈ 78.1 µM). For the same compound, in data set [1] (in vitro), the MIC was determined as 3.5 µg/mL (≈ 5.26 µM).

In the case of Candimycin [reference compound], in data set [1] (in vitro), the “Min. Inhibitory Conc.” value is listed as 0.025 micrograms/ml.

Hamycin methyl ester hydrochloride: in [2], the Solubility in water is above 20.0 mg/mL. On the same count and under the same terms, the value for mediocidin methyl ester hydrochloride was above 50.0 mg/mL. Turning to `COC(=O)C1C(O)CC2(O)CC(O)CC3OC3/C=C/C(=O)OC(C)C/C=C/C=C/C=C/C=C/C(OC3OC(C)C(O)C(N)C3O)CC1O2` (centres unmarked) [Pimaricin methyl ester hydrochloride], the solubility in data set [2] was above 80 mg/mL.

Take `CCOC(=O)[C@H]1[C@@H]2C[C@@H](O[C@@H]3O[C@H](C)[C@@H](O)[C@H](N)[C@@H]3O)/C=C/C=C/C=C/C=C/C=C/C=C/C=C/[C@H](C)[C@@H](O)[C@@H](C)[C@H](C)OC(=O)C[C@H](O)C[C@H](O)CC[C@@H](O)[C@H](O)C[C@H](O)C[C@](O)(C[C@@H]1O)O2` [Amphotericin B ethyl ester hydrochloride, amphotericin B ethyl ester hydrochloride]: in data set [2], the solubility is above 75 mg/mL. For Candidin, the Solubility in water in [4] (setting [10]) was 0.116 mg/mL. Trichomycin methyl ester hydrochloride: the Solubility in water in data set [2] was above 20.0 mg/mL. Further, in [1] (in vitro), the “Min. Inhibitory Conc.” value was found to be 0.030 micrograms/ml.

With Mediocidin [reference compound], the Solubility in water in data set [4] (setting [10]) was 0.072 mg/mL. In [1] (in vitro), the “Min. Inhibitory Conc.” value was 0.035 micrograms/ml. Consider Candidin methyl ester hydrochloride, for which the Solubility in water in data set [2] is above 50.0 mg/mL. Candimycin methyl ester: the “Min. Inhibitory Conc.” value in data set [1] (in vitro) is 0.025 micrograms/ml.

These data come from patent US3945993A, “Derivatives of polyene macrolide antibiotics” (Rutgers Research and Educational Foundation, priority 1971, dated 1976).
